One series concerns beta-blocking activity. Also on record: method as in Regardh et al., 1974. To be noted: both active metabolites together; ref Regardh et al., 1974; cited from earlier work.
The conditions of series [1]: cited from earlier work.
Series [2] has as its target recombinant human CYP3A4 supersomes (Homo sapiens, UniProt P08684). The protocol:
(§1) Microsomes and supersomes were stored at −80°C until used.
(§2) For inhibition studies, the reaction mixture was pre-incubated with the specific inhibitors (concentrations indicated in the figures) for 10 min prior to the addition of test compounds and NADPH. […] Following the incubation in the absence (control) or presence of inhibitors, the reactions were terminated at selected time-points by transferring 50 μL of the incubation mixture into a matrix autosampler vial, to which a threefold volume of ice-cold methanol (containing the internal standards) was added. […] The formation rate (pmol/min/pmol P450) in the absence and the presence of the inhibitors was calculated from the linear parts of the concentration-time curves and expressed as an absolute value or as a percentage relative to the control values.
(§3) Chromatographic separation was performed on a Shimadzu HPLC system (Shimadzu AG, Reinach, Switzerland), coupled to a triple quadrupole tandem mass spectrometer (API4000 or API5500, AB/MDS Sciex, Concord, Canada), operating in positive electrospray ionization mode.
(§4) The CYP activities were determined as the respective metabolite formation rates corresponding to the slope in the metabolite concentration versus time graphs.

The next series deals with CYP3A4. Briefly: Metoprolol metabolism by human liver microsomes with ketoconazole. It is filed as in vitro ADME. The settings on record: pooled human liver microsomes, pH 7.4, probe metoprolol 25 μM. Here is the method: as §1, §2, §3, §4
Series [3] in a line: Metoprolol metabolism by human liver microsomes without inhibitor. It is filed as in vitro ADME. The settings on record: inhibition studies using human liver microsomes; mean ± 95%CI. Here is the method:
as §1, §2, §3, §4
(In general: Microsomes from liver hold many membrane-bound enzymes, among them those of drug oxidation.)

In series [4] the target is T1, CYP2D6 (Homo sapiens, UniProt P10635). The settings on record: ref Johnson and Burlew, 1996; cited from earlier work.
T1 sequence (P10635 whole entry): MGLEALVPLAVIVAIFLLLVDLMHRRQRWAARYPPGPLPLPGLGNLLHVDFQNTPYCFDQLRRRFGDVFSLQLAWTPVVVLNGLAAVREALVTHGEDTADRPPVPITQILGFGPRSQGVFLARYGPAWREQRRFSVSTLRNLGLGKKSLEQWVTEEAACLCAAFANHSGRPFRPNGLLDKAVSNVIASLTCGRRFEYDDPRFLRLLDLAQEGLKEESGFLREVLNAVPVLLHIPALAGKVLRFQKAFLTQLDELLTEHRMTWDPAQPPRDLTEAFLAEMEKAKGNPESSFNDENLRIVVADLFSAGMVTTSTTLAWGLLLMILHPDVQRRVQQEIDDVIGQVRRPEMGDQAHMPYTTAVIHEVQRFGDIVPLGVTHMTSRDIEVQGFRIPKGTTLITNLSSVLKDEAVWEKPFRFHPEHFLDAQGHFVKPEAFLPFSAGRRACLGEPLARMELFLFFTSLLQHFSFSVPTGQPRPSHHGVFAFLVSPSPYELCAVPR
Series [5] in a line: In vivo assessment of CYP induction (Basel phenotyping cocktail before and after rifampicin). To be noted: 15 healthy volunteers, rifampicin 600 mg per day for 7 days.
Method: We used the ratio between the induced and the basal state of the Cl/F of midazolam as a marker of CYP3A4 induction.
Experiments were carried out 5 times unless stated otherwise. Means were compared with the two-tailed Student’s t-test using GraphPad Prism 6.0 (GraphPad Software, San Diego, CA, United States). Data are presented as mean ± SD unless stated otherwise. Induction levels above twofold with statistically significant differences (p < 0.05) were considered relevant.
Series [6] has as its target T1, CYP2D6. To be noted: primary human hepatocytes; without reaching statistical significance; ref Madan et al., 2003; cited from earlier work.
Series [7] has as its target T1, CYP2D6. Briefly: Metoprolol metabolism by human liver microsomes with quinidine. The protocol:
as §1, §2, §3, §4

For series [8], the target named is T1, CYP2D6. Also on record: Pooled human liver microsomes (HLM; Lot #38289); tissue Corning Life science Lot #38289; host or cells: pooled human liver microsomes; method as in Glaeser et al., 2005. To be noted: enterocytes of human subjects; 600 mg rifampicin for 10 days; without reaching statistical significance; ref Glaeser et al., 2005; cited from earlier work.

Series [9] has as its system CYP2D6 mRNA. Description: rt-PCR quantification of CYP2D6 mRNA in primary human hepatocytes after rifampicin. It is filed as cell-based. The settings on record: primary human hepatocytes Lot #Hu8119; rifampicin 20 μM 48 h. The protocol:
Primary cryopreserved human hepatocytes (Life Technologies, Lot #Hu8119 and Lot #Hu8124) were plated at 0.05 × 10^6 cells/well in collagen type-1 precoated 96-well plates (or 0.25 × 10^6 cells/well in 24-well plates) in William’s E medium supplemented with 10% FCS (v/v), 1% L-glutamine 200 mM (v/v), 1% Pen Strep (v/v), 0.1% dexamethasone 100 μM (v/v), and 0.1% insulin 100 μM (v/v), and then incubated at 37°C in the presence of 5% CO2 and 95% humid air.
(§5) A total of 350 μL of RLT buffer (Qiagen, Hombrechtikon, Switzerland) was used to lyse the respective liver cell models, after which the lysate was transferred to Qiashredder columns and centrifuged for 2 min at 13,000 rpm. From the eluate, total RNA was extracted and purified according to the manufacturer’s instructions (Qiagen, RNeasy mini extraction kit). The concentration of the extracted RNA was measured spectrophotometrically at 260 nm on a NanoDrop 2000 (Thermo Fisher Scientific, Wohlen, Switzerland). cDNA was reverse transcribed from the isolated RNA using the Qiagen omniscript system. For quantitative rt-PCR, 10 ng cDNA was used. […] Quantification of mRNA expression levels was performed using the comparative-threshold cycle method ([Livak and Schmittgen, 2001]).

Series [10] deals with primary human hepatocytes. Here is the method: Experimental control culture wells were treated with solvent [DMSO, 0.1% (v/v)] alone. […] The bottoms of the wells were scraped using a pipette tip, after which the contents were transferred to an autosampler vial.
as §3, §4
For induction experiments, metabolite formation rates were determined as described above, and the fold change versus the basal conditions was calculated as the ratio of the metabolite formation rate in wells exposed to an inducer versus formation rates in control wells.

In series [11] the test system is CYP2D6 mRNA. Briefly: rt-PCR quantification of CYP2D6 mRNA in HepaRG cells after rifampicin. It is filed as cell-based, human. Here is the method: HepaRG cells were purchased from Biopredic International (Rennes, France) as undifferentiated cryopreserved cells with the associated medium. Freshly split HepaRG cells were seeded at 9000 cells/well in 96-well plates (or 0.05 × 10^6 cells/well in 24-well plates) and treated over the course of the next 4 weeks as previously described ([Aninat et al., 2006]).
as §5

Chain of recombinant human CYP3A4 supersomes (P08684 whole entry): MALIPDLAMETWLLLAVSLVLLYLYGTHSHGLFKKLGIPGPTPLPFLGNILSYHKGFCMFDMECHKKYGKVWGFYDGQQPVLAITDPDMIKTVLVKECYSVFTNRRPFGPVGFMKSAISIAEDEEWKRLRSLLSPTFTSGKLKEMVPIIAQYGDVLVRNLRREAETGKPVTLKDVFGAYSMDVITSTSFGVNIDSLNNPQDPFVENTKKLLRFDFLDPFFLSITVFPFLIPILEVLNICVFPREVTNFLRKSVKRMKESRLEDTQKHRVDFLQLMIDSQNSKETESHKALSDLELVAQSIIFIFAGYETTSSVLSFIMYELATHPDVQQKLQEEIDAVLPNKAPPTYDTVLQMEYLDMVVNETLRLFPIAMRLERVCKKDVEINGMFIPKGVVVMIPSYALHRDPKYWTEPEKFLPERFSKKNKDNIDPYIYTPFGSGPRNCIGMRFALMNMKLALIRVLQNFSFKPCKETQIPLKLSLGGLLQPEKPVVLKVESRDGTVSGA

For `CC(C)NCC(O)COc1ccc(CCO)cc1` (centres unmarked) [O-demethylmetoprolol], the “contribution to the total beta-blocking activity of metoprolol” value with beta-blocking activity is “approximately 10%”.
Take `COCCc1ccc(OC[C@H](O)CNC(C)C)cc1` [R-metoprolol]: the “clearance higher than that of S-metoprolol” value in [1] (human, in vivo) was 40%.
`COc1ccc2c(c1)[C@]13CCCC[C@@H]1[C@H](C2)N(C)CC3` [dextromethorphan]: the conversion to dextrorphan result in series [2] (rhCYP3A4 supersomes, check for CYP2D6 activity, data not shown) is “not quantifiable”.
The compound `CC(=O)N1CCN(c2ccc(OCC3COC(Cn4ccnc4)(c4ccc(Cl)cc4Cl)O3)cc2)CC1` (centres unmarked) [ketoconazole] yielded an inhibition at 1 μM in the series with CYP3A4 of 9.9 to 17.5%.
Turning to `COCCc1ccc(OCC(O)CNC(C)C)cc1` (centres unmarked) [metoprolol], in series [3], the “contribution of CYP3A4, 2B6, and 2C9 together to N-dealkylation of metoprolol” value is recorded as 7.6 ± 1.7%; the “contribution of CYP3A4, 2B6, and 2C9 together to O-demethylation of metoprolol” value turned out to be 19.0 ± 2.6%; the “contribution of CYP3A4, 2B6, and 2C9 together to α-hydroxylation of metoprolol” value is listed as 4.0 ± 0.7%. Moreover, the “part of orally administered metoprolol metabolized by CYP2D6” value on CYP2D6 [4] is on record as “Approximately 70%”. Moreover, the bioavailability entry in [1] (oral, ref Regardh and Johnsson, 1980) is “approximately 50%”.
`Cc1ncc2n1-c1ccc(Cl)cc1C(c1ccccc1F)=NC2` [midazolam]: the “formation of 1′-OH-midazolam from midazolam by CYP3A4 overexpressing supersomes” value in series [2] (recombinant enzyme) is “rapid”. The “clearance of midazolam after rifampicin” value in series [5] (2 mg midazolam, all subjects) is listed as “increase”.
Turning to `CCC1(c2ccccc2)C(=O)NC(=O)NC1=O` [phenobarbital], the “increase of the activity of dextromethorphan O-demethylation” value at CYP2D6 [6] was “almost identical effect”.
Turning to `C=C[C@H]1C[N@@]2CC[C@H]1C[C@@H]2[C@@H](O)c1ccnc2ccc(OC)cc12` [quinidine], the “block of formation of the phenylacetate metabolite from O-demethylated metoprolol” value on CYP2D6 [7] (HLM, quinidine 1 μM) was “blocked completely”. Also, on CYP2D6 [7] (human, pooled human liver microsomes, pH 7.4, probe metoprolol 25 μM), the activity at 1 μM was 8%.
On to `CO[C@H]1/C=C/O[C@@]2(C)Oc3c(C)c(O)c4c(O)c(c(/C=N/N5CCN(C)CC5)c(O)c4c3C2=O)NC(=O)/C(C)=C\C=C\[C@H](C)[C@H](O)[C@@H](C)[C@@H](O)[C@@H](C)[C@H](OC(C)=O)[C@@H]1C` [rifampicin], for which, at CYP2D6 [8], the “increase of CYP2D6 protein expression” value is listed as 1.6 factor. Also, in the series on CYP2D6 mRNA [9], the “CYP2D6 mRNA expression levels” value is “no increase”. Moreover, the “increase in O-demethylation of metoprolol” value in series [10] (primary human hepatocytes Lot #Hu8124, rifampicin 20 μM 48 h) was 1.4 factor. For the same compound, the “increase in production of α-OH-metoprolol” value in series [10] (primary human hepatocytes treated with rifampicin (Figure 3D, lot #Hu8124)) is recorded as 75%. Moreover, the “increase of the activity of dextromethorphan O-demethylation” value at CYP2D6 [6] is listed as 1.3 factor. Further, in the series with CYP2D6 mRNA [11] (HepaRG cells, rifampicin 20 μM for 48 h), the “induction of CYP2D6 mRNA” value is given as “not induced”. Further, the “effect on CYP2D6 mRNA” value with CYP2D6 mRNA [11] (both cell models (HepaRG cells and primary human hepatocytes), 20 μM rifampicin) was “not affected”.
Turning to `COCC(O)c1ccc(OCC(O)CNC(C)C)cc1` (stereo not drawn) [α-OH-metoprolol], the “contribution to the total beta-blocking activity of metoprolol” value in the series on beta-blocking activity was “approximately 10%”. Moreover, the “increase in α-OH-metoprolol formation / AUC after rifampicin” value in [5] (12.5 mg metoprolol oral, statistically not significant) is recorded as 9%.

The inhibition is the relative decrease from the control value, in per cent. Read a low inhibition as a weak effect.

(Values after paper PMC6066528 (Frontiers in Pharmacology, 2018).)
